Test results taken from US8232407B2, “Nitrogenous heterocyclic compounds with insecticidal activity, and the preparation and use thereof” (East China University of Science and Technology, priority 2008, dated 2012).

Columns and labels:
Format in all cases: in vivo
[1] = system: Aphis craccivoral; assay: Insecticidal activities to aphids, immersion method
In short: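 Immersion assay: compound diluted from 10 g/L DMF stock to 500 ppm in 0.2 mL/L Triton X-100, sprout-feeding wingless adults dipped 5 s. Kept at 23° C, three repeats; 24 h mortality calculated relative to surviving Triton-treated controls.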

[2] = system: Nilaparvata lugens; assay: Insecticidal activities to plant hopper, spraying method
In short: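 Spray test: acetone solutions of 500 down to 0.79 ppm, 2 ml per tumbler holding 10 planthoppers introduced 6 h earlier, triplicate, aqueous acetone as control. Mortality at 24 h calculated from survivors relative to control.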

[3] = system: Pseudaletia separate Walker; assay: Insecticidal activities to armyworm, leaf dipping and feeding
In short: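 Armyworms (10 per tumbler, 3 replicates) ate fresh maize leaves that had been immersed for 3 seconds in compound solutions of 1.57-500 ppm in acetone, or in aqueous acetone for controls. Kills were scored at 24 h, and mortality was calculated relative to survivors in the control group.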

[4] = system: Plutella xylostella; assay: Insecticidal activities to diamondback moth, feeding dipped leaves
In short: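 Mortality was scored 24 h after larvae of Plutella xylostella (10 per treatment, 3 repeats) fed on cabbage leaves immersed 3 s in test solution and dried at room temperature. It was computed relative to survivors in a water-treated control.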

[5] = 500 ppm, leaf dipping and feeding, counted after 24 hours

SMILES | Aphis craccivoral Mortality (%) 500 ppm ([1]; in vivo) | Nilaparvata lugens Mortality (%) 500 ppm ([2]; in vivo) | Pseudaletia separate Walker Mortality (%) 500 ppm ([3]; in vivo) | Plutella xylostella Mortality (%) 500 ppm ([4]; in vivo) | mortality at 500 ppm ([1]; Aphis, 500 ppm, immersion method, read-out: Aphis craccivoral Mortality (%) 500 ppm) | mortality at 500 ppm ([2]; Nilaparvata lugens, 500 ppm, spraying method, counted after 24 hours, read-out: Nilaparvata lugens Mortality (%) 500 ppm) | Pseudaletia separate Walker Mortality (%) 500 ppm [3, 5] | mortality at 500 ppm ([4]; Plutella xylostella, 500 ppm, feeding dipped leaves, counted after 24 hours, read-out: Plutella xylostella Mortality (%) 500 ppm) | Aphis craccivoral Mortality (%) 500 ppm ([1]; 500 ppm, immersion method) | Nilaparvata lugens Mortality (%) 500 ppm ([2]; 500 ppm, spraying method, counted after 24 hours) | Plutella xylostella Mortality (%) 500 ppm ([4]; 500 ppm, feeding dipped leaves, counted after 24 hours)
C[N+]1=C(C(=Cc2ccc[nH]2)[N+](=O)[O-])N(Cc2ccc(Cl)nc2)CC1.[Cl-] [Compound 274] | 100% | 100% | 100% | 100% | – | – | – | – | – | – | –
C[N+]1=C(C(=Cc2sc(Br)cc2Br)[N+](=O)[O-])N(Cc2ccc(Cl)nc2)CC1.[Cl-] [Compound 269] | 100% | 100% | 100% | 100% | – | – | – | – | – | – | –
O=[N+]([O-])C(=Cc1cccs1)C1=NCCCN1Cc1ccc(Cl)nc1 [Compound 61] | 100% | 100% | 100% | 100% | – | – | – | – | – | – | –
O=[N+]([O-])/C(=C/c1ccoc1)C1=NCCN1Cc1ccc(Cl)nc1 [Compound 2, 2-chloro-5-((2-(2-(furan-3-yl)-1-nitrovinyl)-4,5-dihydro-imidazol-1-yl)-methyl) pyridine] | – | – | – | – | 100% | 100% | 100% | 100% | – | – | –
CC(c1ccc(Cl)nc1)N1CCN=C1C(=Cc1ccc([N+](=O)[O-])s1)[N+](=O)[O-] (racemic) [Compound 129] | 100% | 100% | 100% | 80% | – | – | – | – | – | – | –
O=[N+]([O-])C(=Cc1ccc(Br)s1)C1=NCCN1Cc1cnc(Cl)s1 [Compound 87] | 100% | 100% | 100% | 100% | – | – | – | – | – | – | –
CC[N+]1=C(C(=Cc2cccs2)[N+](=O)[O-])N(Cc2ccc(Cl)nc2)CC1.[Cl-] [Compound 291] | 100% | 100% | 100% | 100% | – | – | – | – | – | – | –
O=[N+]([O-])C(=Cc1cnco1)C1=NCCN1Cc1ccc(Cl)nc1 [Compound 33] | 100% | 100% | 100% | 100% | – | – | – | – | – | – | –
O=[N+]([O-])C(=Cc1ccc(Br)o1)C1=NCCN1Cc1ccc(Cl)nc1 [Compound 5] | 100% | 100% | 100% | 100% | – | – | – | – | – | – | –
O=[N+]([O-])C(=Cc1ccc(Cl)o1)C1=NCCN1CC1CCOC1 (centres unmarked) [Compound 94] | 46% | 77% | 77% | 83% | – | – | – | – | – | – | –
C[N+]1=C(C(=Cc2cc(Cl)c(Cl)o2)[N+](=O)[O-])N(Cc2ccc(Cl)nc2)CC1.[Cl-] [Compound 251] | 100% | 100% | 100% | 100% | – | – | – | – | – | – | –
O=[N+]([O-])C(=Cc1cc(Br)c(Br)o1)C1=NCCN1Cc1ccc(Cl)nc1 [Compound 10] | 100% | 100% | 100% | 100% | – | – | – | – | – | – | –
O=[N+]([O-])C(=Cc1cc(Br)co1)C1=NCCN1Cc1ccccc1 [Compound 107] | 82% | 92% | 96% | 85% | – | – | – | – | – | – | –
CC(=C(C1=NCCN1C(C)c1ccc(Cl)nc1)[N+](=O)[O-])c1ccc(Br)o1 (racemic) [Compound 137] | 98% | 100% | 100% | 100% | – | – | – | – | – | – | –
O=[N+]([O-])C(=Cc1oc(Br)cc1Br)C1=NCCN1Cc1cnc(Cl)s1 [Compound 78] | 100% | 100% | 100% | 100% | – | – | – | – | – | – | –
O=[N+]([O-])C(=Cc1oc(Cl)cc1Cl)C1=NCCCN1Cc1ccc(Cl)nc1 [Compound 54] | 100% | 100% | 100% | 100% | – | – | – | – | – | – | –

SMILES | Aphis craccivoral Mortality (%) 500 ppm ([1]; in vivo) | Nilaparvata lugens Mortality (%) 500 ppm ([2]; in vivo) | Pseudaletia separate Walker Mortality (%) 500 ppm ([3]; in vivo) | Plutella xylostella Mortality (%) 500 ppm ([4]; in vivo) | mortality at 500 ppm ([1]; Aphis, 500 ppm, immersion method, read-out: Aphis craccivoral Mortality (%) 500 ppm) | mortality at 500 ppm ([2]; Nilaparvata lugens, 500 ppm, spraying method, counted after 24 hours, read-out: Nilaparvata lugens Mortality (%) 500 ppm) | Pseudaletia separate Walker Mortality (%) 500 ppm [3, 5] | mortality at 500 ppm ([4]; Plutella xylostella, 500 ppm, feeding dipped leaves, counted after 24 hours, read-out: Plutella xylostella Mortality (%) 500 ppm) | Aphis craccivoral Mortality (%) 500 ppm ([1]; 500 ppm, immersion method) | Nilaparvata lugens Mortality (%) 500 ppm ([2]; 500 ppm, spraying method, counted after 24 hours) | Plutella xylostella Mortality (%) 500 ppm ([4]; 500 ppm, feeding dipped leaves, counted after 24 hours)
O=[N+]([O-])C(=Cc1cc(Br)cs1)C1=NCCN1Cc1ccc(Cl)nc1 [Compound 22] | 100% | 100% | 100% | 100% | – | – | – | – | – | – | –
C[N+]1=C(C(=Cc2ccc([N+](=O)[O-])s2)[N+](=O)[O-])N(Cc2cnc(Cl)s2)CC1.[Cl-] [Compound 282] | 100% | 100% | 100% | 100% | – | – | – | – | – | – | –
O=[N+]([O-])C(=Cc1ccc(Cl)o1)C1=NCCN1Cc1cnc(Cl)s1 [Compound 71] | 100% | 100% | 100% | 100% | – | – | – | – | – | – | –
O=[N+]([O-])C(=Cc1cc(Br)c(Br)o1)C1=NCCCN1Cc1ccc(Cl)nc1 [Compound 55] | 98% | 100% | 100% | 100% | – | – | – | – | – | – | –
O=[N+]([O-])C(=Cc1cc(Br)co1)C1=NCCN1Cc1ccc(Cl)nc1 [Compound 7] | – | – | – | – | – | – | 100% | – | 100% | 100% | 100%
Cc1coc(C=C(C2=NCCN2Cc2ccc(Cl)nc2)[N+](=O)[O-])c1 [Compound 13] | 100% | 100% | 100% | 100% | – | – | – | – | – | – | –
C[N+]1=C(C(=Cc2ccc(Br)s2)[N+](=O)[O-])N(Cc2ccc(Cl)nc2)CC1.[Cl-] [Compound 263] | 100% | 100% | 100% | 100% | – | – | – | – | – | – | –
C[N+]1=C(C(=Cc2ccc(CO)s2)[N+](=O)[O-])N(Cc2ccc(Cl)nc2)CC1.[Cl-] [Compound 273] | 100% | 100% | 100% | 100% | – | – | – | – | – | – | –
O=[N+]([O-])C(=Cc1ccc([N+](=O)[O-])s1)C1=NCCN1Cc1ccc(Cl)nc1 [Compound 18] | 100% | 100% | 100% | 100% | – | – | – | – | – | – | –
CC(=C(C1=NCCN1C(C)c1ccc(Cl)nc1)[N+](=O)[O-])c1ccc([N+](=O)[O-])o1 (racemic) [Compound 135] | 56% | 63% | 45% | 56% | – | – | – | – | – | – | –
O=[N+]([O-])C(=Cc1ccc(Br)o1)C1=NCCN1CC1CCOC1 (centres unmarked) [Compound 95] | 65% | 61% | 87% | 92% | – | – | – | – | – | – | –
O=[N+]([O-])C(=Cc1ccc([N+](=O)[O-])s1)C1=NCCN1Cc1cnc(Cl)s1 [Compound 85] | 100% | 100% | 100% | 100% | – | – | – | – | – | – | –
O=[N+]([O-])C(=Cc1ccc(Cl)o1)C1=NCCN1Cc1ccc(Cl)nc1 [Compound 4] | 100% | 100% | 100% | 100% | – | – | – | – | – | – | –
CCc1ccc(C=C(C2=NCCN2CC2CCOC2)[N+](=O)[O-])o1 (centres unmarked) [Compound 101] | 76% | 65% | 65% | 78% | – | – | – | – | – | – | –
C[N+]1=C(C(=Cc2cc(Br)co2)[N+](=O)[O-])N(Cc2ccc(Cl)nc2)CC1.[Cl-] [Compound 250] | 100% | 100% | 100% | 100% | – | – | – | – | – | – | –
O=[N+]([O-])C(=Cc1ccsc1)C1=NCCN1Cc1cnc(Cl)s1 [Compound 84] | 100% | 100% | 100% | 100% | – | – | – | – | – | – | –
